Target: T1, Human Polymorphonuclear Leukocyte Elastase (Homo sapiens, UniProt P08246)
T1 construct: Crude extract of human polymorphonuclear leukocytes (PMN) containing elastase activity; from tissue; host or cells: human polymorphonuclear leukocytes (crude extract)
T1 sequence (P08246 30-267): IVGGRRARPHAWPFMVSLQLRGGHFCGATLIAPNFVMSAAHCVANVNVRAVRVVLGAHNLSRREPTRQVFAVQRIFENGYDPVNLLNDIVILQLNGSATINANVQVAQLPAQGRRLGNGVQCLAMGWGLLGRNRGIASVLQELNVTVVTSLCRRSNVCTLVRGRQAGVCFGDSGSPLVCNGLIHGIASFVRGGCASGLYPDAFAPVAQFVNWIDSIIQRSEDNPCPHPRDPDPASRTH
Assay: Enzyme assay for inhibition of human polymorphonuclear leukocyte elastase via hydrolysis of Boc-AAPAN or Boc-AAPVN
Assay type: biochemical
Settings: expressed to the nearest thousand; for kinact/KI: pH 7.5, second order rate constant for inactivation of the enzyme, read-out: Kobs/[I]
Procedure, shortened: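 Crude human PMN extract as enzyme source, with 0.2 mM Boc-AAPAN in 0.05M TES buffer pH 7.5. Inhibitors in DMSO were added to substrate before the extract, and rate was followed as ΔOD/min at 410 mµ. Values are kobs/I, the second-order inactivation rate constant (per mole per second).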

| SMILES | kinact/KI | Kobs/[I] (second order rate constant for inactivation of the enzyme, pH 7.5) |
| --- | --- | --- |
| CCC[C@@H](NC(=O)N1C(=O)C(CC)(CC)[C@@H]1Oc1ccc(CC(=O)N(C)CCCN(C)Cc2ccccc2)cc1)c1ccc(C)cc1 [Compound 66] | 1.36e+06 M⁻¹ s⁻¹ | – |
| CCC[C@@H](NC(=O)N1C(=O)C(CC)(CC)[C@@H]1Oc1ccc(CC(=O)N(C)C)cc1)c1ccc(C)cc1 [Compound 67] | 942000 M⁻¹ s⁻¹ | – |
| CCC[C@@H](NC(=O)N1C(=O)C(CC)(CC)[C@@H]1Oc1ccc(CC(=O)N(C)Cc2ccccc2)cc1)c1ccc(C)cc1 [Compound 68] | 1.9e+06 M⁻¹ s⁻¹ | – |
| CCC[C@@H](NC(=O)N1C(=O)C(CC)(CC)[C@@H]1Oc1ccc(CC(=O)N(C)CCN(C)Cc2ccccc2)cc1)c1ccc(C)cc1 [Compound 69] | 2.79e+06 M⁻¹ s⁻¹ | – |
| CCC[C@@H](NC(=O)N1C(=O)C(CC)(CC)[C@@H]1Oc1ccc(CC(=O)NOCc2ccccc2)cc1)c1ccc(C)cc1 [Compound 70] | 2.37e+06 M⁻¹ s⁻¹ | – |
| CCC[C@@H](NC(=O)N1C(=O)C(CC)(CC)[C@@H]1Oc1ccc(CC(=O)N(C)c2ccc(C(=O)O)cc2)cc1)c1ccc(C)cc1 [Compound 71] | 1.51e+06 M⁻¹ s⁻¹ | – |
| CCC[C@@H](NC(=O)N1C(=O)C(CC)(CC)[C@@H]1Oc1ccc(CC(=O)N(C)c2ccc(C(=O)NS(=O)(=O)c3ccccc3)cc2)cc1)c1ccc(C)cc1 [Compound 72] | 3.28e+06 M⁻¹ s⁻¹ | – |
| CCCC(NC(=O)N1C(=O)C(CC)(CC)C1Oc1ccc(C(=O)NCCN(C)C)cc1)c1ccc(C)cc1 (stereo not shown) [Compound 73, 2-[4-[[[2-(dimethylamino)ethyl]amino]carbonyl]phenoxy]-3,3-diethyl-N-[1-(4-methylphenyl)butyl]-4-oxo-1-azetidinecarboxamide] | 968000 M⁻¹ s⁻¹ | – |
| CCC[C@@H](NC(=O)N1C(=O)C(CC)(CC)[C@@H]1Oc1ccc(C(=O)NCC(=O)O)cc1)c1ccc(C)cc1 [Compound 74] | 1.43e+06 M⁻¹ s⁻¹ | – |
| CCC[C@@H](NC(=O)N1C(=O)C(CC)(CC)[C@@H]1Oc1ccc(C(=O)N(C)CCN(C)C)cc1)c1ccc(C)cc1 [Compound 75, [S-(R*,S*)]-2-[4-[[[2-(dimethylamino)ethyl]methylamino]carbonyl]phenoxy]-3,3-diethyl-N-[1-(4-methylphenyl]butyl]-4-oxo-1-azetidinecarboxamide] | 1.92e+06 M⁻¹ s⁻¹ | – |
| CCC[C@@H](NC(=O)N1C(=O)C(CC)(CC)[C@@H]1Oc1ccc(C(=O)N(CC)CCN(C)C)cc1)c1ccc(C)cc1 [Compound 76] | 1.44e+06 M⁻¹ s⁻¹ | – |
| CCC[C@@H](NC(=O)N1C(=O)C(CC)(CC)[C@@H]1Oc1ccc(C(=O)NCCN(CC)CC)cc1)c1ccc(C)cc1 [Compound 77] | 1.19e+06 M⁻¹ s⁻¹ | – |
| CCC[C@@H](NC(=O)N1C(=O)C(CC)(CC)[C@@H]1Oc1ccc(C(=O)NCCN2CCOCC2)cc1)c1ccc(C)cc1 [Compound 78] | 1.84e+06 M⁻¹ s⁻¹ | – |
| CCC[C@@H](NC(=O)N1C(=O)C(CC)(CC)[C@@H]1Oc1ccc(C(=O)N(C)CCN2CCOCC2)cc1)c1ccc(C)cc1 [Compound 79] | 2.12e+06 M⁻¹ s⁻¹ | – |
| CCC[C@@H](NC(=O)N1C(=O)C(CC)(CC)[C@@H]1Oc1ccc(C(=O)N(C)CCN(CCOC)CCOC)cc1)c1ccc(C)cc1 [Compound 80] | 2.08e+06 M⁻¹ s⁻¹ | – |
| CCC[C@@H](NC(=O)N1C(=O)C(CC)(CC)[C@@H]1Oc1ccc(C(=O)N(C)CCN(CC)CC)cc1)c1ccc(C)cc1 [Compound 81] | 2.19e+06 M⁻¹ s⁻¹ | – |
| CCC[C@@H](NC(=O)N1C(=O)C(CC)(CC)[C@@H]1Oc1ccc(C(=O)N(CCN(C)C)c2ccccc2)cc1)c1ccc(C)cc1 [Compound 82] | 2.5e+06 M⁻¹ s⁻¹ | – |
| CCC[C@@H](NC(=O)N1C(=O)C(CC)(CC)[C@@H]1Oc1ccc(C(=O)N(C)CCCN(C)C)cc1)c1ccc(C)cc1 [Compound 83] | 1.8e+06 M⁻¹ s⁻¹ | – |
| CCC[C@@H](NC(=O)N1C(=O)C(CC)(CC)[C@@H]1Oc1ccc(C(=O)NCCN(C(C)C)C(C)C)cc1)c1ccc(C)cc1 [Compound 84] | 2.1e+06 M⁻¹ s⁻¹ | – |
| CCC[C@@H](NC(=O)N1C(=O)C(CC)(CC)[C@@H]1Oc1ccc(C(=O)N(C)CC[N+](C)(C)[O-])cc1)c1ccc(C)cc1 [Compound 85] | 1.59e+06 M⁻¹ s⁻¹ | – |
| CCC[C@@H](NC(=O)N1C(=O)C(CC)(CC)[C@@H]1Oc1ccc(C(=O)N(C)CCN(C(C)C)C(C)C)cc1)c1ccc(C)cc1 [Compound 86] | 2.45e+06 M⁻¹ s⁻¹ | – |
| CCC[C@@H](NC(=O)N1C(=O)C(CC)(CC)[C@@H]1Oc1ccc(C(=O)NS(=O)(=O)CCN2CCOCC2)cc1)c1ccc(C)cc1 [Compound 87] | 775000 M⁻¹ s⁻¹ | – |
| CCC[C@@H](NC(=O)N1C(=O)C(CC)(CC)[C@@H]1Oc1ccc(C(=O)NS(=O)(=O)CCN(C)C)cc1)c1ccc(C)cc1 [Compound 88] | 788000 M⁻¹ s⁻¹ | – |
| CCC[C@@H](NC(=O)N1C(=O)C(CC)(CC)[C@@H]1Oc1ccc(C(=O)NCCc2cnc[nH]2)cc1)c1ccc(C)cc1 [Compound 89] | 2.09e+06 M⁻¹ s⁻¹ | – |
| CCC[C@@H](NC(=O)N1C(=O)C(CC)(CC)[C@@H]1Oc1ccc(C(=O)NCCN2CCCCC2)cc1)c1ccc(C)cc1 [Compound 90] | 941000 M⁻¹ s⁻¹ | – |
| CCC[C@@H](NC(=O)N1C(=O)C(CC)(CC)[C@@H]1Oc1ccc(C(=O)N(C)CCN2CCCCC2)cc1)c1ccc(C)cc1 [Compound 91] | 892000 M⁻¹ s⁻¹ | – |

| SMILES | kinact/KI | Kobs/[I] (second order rate constant for inactivation of the enzyme, pH 7.5) |
| --- | --- | --- |
| CCC[C@@H](NC(=O)N1C(=O)C(CC)(CC)[C@@H]1Oc1ccc(C(=O)N(C)CCNC)cc1)c1ccc(C)cc1 [Compound 92] | 1.45e+06 M⁻¹ s⁻¹ | – |
| CCC[C@@H](NC(=O)N1C(=O)C(CC)(CC)[C@@H]1Oc1ccc(C(=O)NCCN2CCCC2)cc1)c1ccc(C)cc1 [Compound 94] | 1.24e+06 M⁻¹ s⁻¹ | – |
| CCC[C@@H](NC(=O)N1C(=O)C(CC)(CC)[C@@H]1Oc1ccc(C(=O)N(C)CCN2CCCC2)cc1)c1ccc(C)cc1 [Compound 95] | 1e+06 M⁻¹ s⁻¹ | – |
| CCC[C@@H](NC(=O)N1C(=O)C(CC)(CC)[C@@H]1Oc1ccc(C(=O)NCCn2cncn2)cc1)c1ccc(C)cc1 [Compound 96] | 1.4e+06 M⁻¹ s⁻¹ | – |
| CCC[C@@H](NC(=O)N1C(=O)C(CC)(CC)[C@@H]1Oc1ccc(C(=O)NCCn2ccnc2)cc1)c1ccc(C)cc1 [Compound 97] | 1.07e+06 M⁻¹ s⁻¹ | – |
| CCC[C@@H](NC(=O)N1C(=O)C(CC)(CC)[C@@H]1Oc1ccc(C(=O)NCCN2CC3CCC(CC3)C2)cc1)c1ccc(C)cc1 [Compound 98] | 3.04e+06 M⁻¹ s⁻¹ | – |
| CCC[C@@H](NC(=O)N1C(=O)C(CC)(CC)[C@@H]1Oc1ccc(C(=O)NCCN2CCC3(CCCCC3)CC2)cc1)c1ccc(C)cc1 [Compound 99] | 2.58e+06 M⁻¹ s⁻¹ | – |
| CCC[C@@H](NC(=O)N1C(=O)C(CC)(CC)[C@@H]1Oc1ccc(C(=O)NCCn2ncnn2)cc1)c1ccc(C)cc1 [Compound 100] | 2.01e+06 M⁻¹ s⁻¹ | – |
| CCC[C@@H](NC(=O)N1C(=O)C(CC)(CC)[C@@H]1Oc1ccc(C(=O)NCCn2cnnn2)cc1)c1ccc(C)cc1 [Compound 101] | 2.05e+06 M⁻¹ s⁻¹ | – |
| CCCC(NC(=O)N1C(=O)C(CC)(CC)C1Oc1ccc(C(=O)NCC(=O)N2CCCC2C(=O)NCc2ccccc2)cc1)c1ccc(C)cc1 (stereo not shown) [Compound 102] | 2.75e+06 M⁻¹ s⁻¹ | – |
| CCC[C@@H](NC(=O)N1C(=O)C(CC)(CC)[C@@H]1Oc1ccc(C(=O)N(C)CCN2CC3CCC(CC3)C2)cc1)c1ccc(C)cc1 [Compound 103] | 3e+06 M⁻¹ s⁻¹ | – |
| CCC[C@@H](NC(=O)N1C(=O)C(CC)(CC)[C@@H]1Oc1ccc(C(=O)N(C)CCc2c[nH]cn2)cc1)c1ccc(C)cc1 [Compound 104] | 2.39e+06 M⁻¹ s⁻¹ | – |
| CCC[C@@H](NC(=O)N1C(=O)C(CC)(CC)[C@@H]1Oc1ccc(C(=O)N(C)CCN(C)C(C)=O)cc1)c1ccc(C)cc1 [Compound 105] | 2.4e+06 M⁻¹ s⁻¹ | – |
| CCC[C@@H](NC(=O)N1C(=O)C(CC)(CC)[C@@H]1Oc1ccc(C(=O)N(C)CCN(C)C(=O)NC)cc1)c1ccc(C)cc1 [Compound 106] | 2.49e+06 M⁻¹ s⁻¹ | – |
| CCC[C@@H](NC(=O)N1C(=O)C(CC)(CC)[C@@H]1Oc1ccc(C(=O)N(C)CCN(C)S(C)(=O)=O)cc1)c1ccc(C)cc1 [Compound 107] | 2.53e+06 M⁻¹ s⁻¹ | – |
| CCC[C@@H](NC(=O)N1C(=O)C(CC)(CC)[C@@H]1Oc1ccc(C(=O)N(C)CCN2CC3CCC(CC3)C2)cc1)c1ccc(C)cc1 [Compound 108] | – | 2,953,000 per mole per second |
| CCC[C@@H](NC(=O)N1C(=O)C(CC)(CC)[C@@H]1Oc1ccc(C(=O)NCCN2CCS(=O)(=O)CC2)cc1)c1ccc(C)cc1 [Compound 109] | 1.28e+06 M⁻¹ s⁻¹ | – |
| CCC[C@@H](NC(=O)N1C(=O)C(CC)(CC)[C@@H]1Oc1ccc(C(=O)NCc2ccc(N(C)C)cc2)cc1)c1ccc(C)cc1 [Compound 110] | 5.6e+06 M⁻¹ s⁻¹ | – |
| CCC[C@@H](NC(=O)N1C(=O)C(CC)(CC)[C@@H]1Oc1ccc(C(=O)Nc2cccc(N(C)C)c2)cc1)c1ccc(C)cc1 [Compound 111] | 2.29e+06 M⁻¹ s⁻¹ | – |
| CCC[C@@H](NC(=O)N1C(=O)C(CC)(CC)[C@@H]1Oc1ccc(C(=O)N(C)CCN2CCS(=O)(=O)CC2)cc1)c1ccc(C)cc1 [Compound 112] | 1.6e+06 M⁻¹ s⁻¹ | – |
| CCC[C@@H](NC(=O)N1C(=O)C(CC)(CC)[C@@H]1Oc1ccc(C(=O)Nc2ccc(N(C)C)cc2)cc1)c1ccc(C)cc1 [Compound 113] | 2.59e+06 M⁻¹ s⁻¹ | – |
| CCC[C@@H](NC(=O)N1C(=O)C(CC)(CC)[C@@H]1Oc1ccc(C(=O)NCCc2nccn2Cc2ccccc2)cc1)c1ccc(C)cc1 [Compound 114] | 3.85e+06 M⁻¹ s⁻¹ | – |
| CCC[C@@H](NC(=O)N1C(=O)C(CC)(CC)[C@@H]1Oc1ccc(C(=O)N(C)CCc2ccccn2)cc1)c1ccc(C)cc1 [Compound 115] | 2.27e+06 M⁻¹ s⁻¹ | – |
| CCC[C@@H](NC(=O)N1C(=O)C(CC)(CC)[C@@H]1Oc1ccc(C(=O)N(C)C2CN3CCC2CC3)cc1)c1ccc(C)cc1 (stereo partly shown) [Compound 116] | 3.48e+06 M⁻¹ s⁻¹ | – |
| CCC[C@@H](NC(=O)N1C(=O)C(CC)(CC)[C@@H]1Oc1ccc(C(=O)NCCN2CCN(C(=O)OCc3ccccc3)CC2)cc1)c1ccc(C)cc1 [Compound 117] | 6.23e+06 M⁻¹ s⁻¹ | – |
| CCC[C@@H](NC(=O)N1C(=O)C(CC)(CC)[C@@H]1Oc1ccc(C(=O)NC2CN(CC)N(CC)C2)cc1)c1ccc(C)cc1 [Compound 118] | 1e+06 M⁻¹ s⁻¹ | – |

From EP0595557A1, “New substituted azetidinones as anti-inflammatory and antidegenerative agents” (MERCK & CO. INC., priority 1992, dated 1994)
